Source: patent publication US20250127784A1, “Treatment of Telangiectasia” (IMPERIAL COLLEGE INNOVATIONS LIMITED, priority 2022, published 2025)
Entries after “also recorded” stand apart in the source; their conditions may differ.

Legend:
[1] = system: pulmonary arteriovenous malformations (PAVMs) of the HHT patient; assay: Blinded thoracic CT scan comparison of pulmonary AVMs before and after trametinib; type: in vivo, human; settings: for effect on pulmonary AVMs (CT scans): 1 month before versus after 10 months of trametinib treatment; for size of venous sac #7: 13 mm at T−2 ys, 15 mm at T−1M
Experimental: Thoracic CT scan images taken for clinical purposes were compared before Trametinib (−10 years (T−10 yrs), −2 years (T−2ys), −1 month (T−1M)), and after Trametinib for 4 months (T+4M), 10 months (T+10M) and 18 months (T+18M, data not shown).
Blinded analysis of the CT scans was conducted by an expert Imperial Thoracic Radiologist to address the question of “whether the PAVMs have stayed the same, got better, or got worse?”

[2] = dose of 2 mg/day; cited from earlier work
[3] = system: HHT-associated haemorrhage (nosebleeds) and anaemia in ENG+/− HHT patient; assay: Clinical case: HHT patient treated with trametinib, nosebleeds and transfusion-dependent anaemia; settings: for nosebleed frequency grade/category for HHT patients (Shovlin 2010, N=202): pre: highest category
[4] = system: MAP3K1 transcripts in BOECs; assay: RNASeq of blood outgrowth endothelial cells (BOECs) treated by BMP9: MAP3K1; type: cell-based, human; settings: all BOECs (N=16), treated by BMP9 for 1 hour versus untreated
Experimental: FIG. 8: MAP3K1 RNASeq data in HHT and control endothelial cells from 16 cultures of blood outgrowth endothelial cells (BOECs: 4 controls, and 12 from the HHT genotypes ACVRL1^+/−, ENG^+/− and SMAD4^+/−). Data were RBM45-normalised. A Untreated BOECs (N=8). B All BOECs (N=16), untreated (unRx), and treated (Rx) by BMP9 for 1 hour. Bars: mean and standard deviation; circles: individual cultures.
To test this hypothesis, further RNASeq analysis of blood outgrowth endothelial cells (BOECs) from HHT patients was carried out. It has previously been shown that the Shovlin group established BOECs from controls and patients of all 3 HHT genotypes (ENG^+/−, ACVRL1^+/− and SMAD4^+/−); extracted RNA from replicate cultures; and developed novel methodologies to interpret primary alignment data generated by sequencing alignments to Homo sapiens human genome build 38 (GRCh38). […]
To test this hypothesis, further RNAseq analysis of blood outgrowth endothelial cells (BOECs) from HHT patients was carried out, and the relative expression levels of TGFβ/BMP9 signalling inhibitors was investigated. […] RNA had been extracted from replicate cultures; sequenced and aligned to Homo sapiens human genome build 38 (GRCh38), and unique gene reads normalised to total alignment counts per library initially further normalised using the Shovlin-group validated, lowest Gini Coefficient (GC) housekeeper gene RBM45 […]

[5] = system: MEK1/2 transcript levels in control and ENG+/− BOECs; assay: RNASeq of blood outgrowth endothelial cells (BOECs) treated by BMP9: MEK1/2; type: cell-based, human; settings: treated by BMP9 for 1 hour versus untreated, RBM45-normalised
Experimental: (§1) FIG. 9: RNASeq data in HHT and control endothelial cells for MAP2K1 encoding MEK1 from 16 cultures of blood outgrowth endothelial cells (BOECs: 4 controls, and 12 from the HHT genotypes ACVRL1^+/−, ENG^+/− and SMAD4^+/−). Data were RBM45-normalised which normalises for PTC-induced stress. A All BOECs, B Control and ENG BOECs; C Control and ENG BOECs untreated (unRx) and treated (Rx) by BMP9 for 1 hour. Bars: mean and standard deviation; circles: individual cultures.
as §1, with “10:” for “9:”, “MAP2K2” for “MAP2K1”, “MEK2” for “MEK1”
RNAseq was carried out on BOECs from HHT patients and healthy controls to investigate MEK1/MEK2 transcription levels, using RBM45 normalisation to normalise for PTC-related stress.

## CC(=O)Nc1cccc(-n2c(=O)n(C3CC3)c(=O)c3c(Nc4ccc(I)cc4F)n(C)c(=O)c(C)c32)c1 [trametinib, N-(3-{3-Cyclopropyl-5-[(2-fluoro-4-iodophenyl)amino]-6,8-dimethyl-2,4,7-trioxo-3,4,6,7-tetrahydropyrido[4,3-d]pyrimidin-1(2H)-yl}phenyl)acetamide]
[1]
  effect on pulmonary AVMs (CT scans): has no effect on the patient's AVMs; also recorded: pulmonary AVMs did not improve
[1]; listed as Trametinib
  effect on pulmonary AVMs (CT scans): No pulmonary AVMs improved; also recorded: had no effect on the PAVMs; also recorded: within the error of CT, but with a probable slight increase in size
[1]; T+4M (trametinib for 4 months)
  size of venous sac #7: 16 mm
[1]; T+10M (trametinib for 10 months)
  size of venous sac #7: 16.6 mm
[1]; scans 1 month before trametinib and 11 months later, after 10 months of treatment
  number of the 11 main pulmonary AVMs possibly slightly larger: 4
[2]
  elimination half-life: 93.6 to 115 h
[3]; ENG+/− HHT patient, trametinib treatment
  overall effect on HHT telangiectasia, nosebleeds (haemorrhage) and anaemia: treats telangiectasia, and particularly anaemia and haemorrhage associated with telangiectasia in HHT; also recorded: clinically important improvement in nosebleeds and anaemia; also recorded: elicited an improvement in HHT-associated haemorrhage (nosebleeds) and anaemia
[3]; after 10 months of trametinib treatment
  maximum nose bleed frequency, two most severe categories (daily or weekly): no longer fitted into either of these categories
[3]; after 10 months of trametinib, pre: 4th highest grouping
  haemorrhage adjusted iron requirement (HAIR) grouping (Finnamore 2013, N=50): lowest grouping
[3]; after 10 months of trametinib
  nosebleed frequency grade/category for HHT patients (Shovlin 2010, N=202): 3rd lowest frequency grade
[3]; after 10 months of trametinib, listed as Trametinib
  nosebleed frequency grade/category for HHT patients (Shovlin 2010, N=202): third lowest category
[3]; after 10 months of trametinib, pre: highest quintile
  haemorrhage adjusted iron requirement (HAIR) quintile (Finnamore 2013, N=50): lowest quintile
[3]; after 10 months trametinib treatment
  intensity of nosebleeds: brief trickles
[3]; after 10 months trametinib treatment, before: several times per week to multiple times per day
  nosebleed frequency: no more than once per month
[3]; after 10 months trametinib treatment, previously every 3 weeks
  blood (red cell) transfusion requirement for anaemia: transfusions were not required even at extended assessment times
[3]; after 10 months trametinib treatment, previously transfusions every 3 weeks
  transfusion assessment interval: 8 weekly
[3]; at 18 and 24 months of trametinib treatment
  nosebleeds (frequency and intensity), maintained frequency: approximately one a year
[3]; at 18 and 24 months of trametinib treatment (not shown)
  haemorrhage adjusted iron requirement (HAIR): reduced
[3]; standard chemotherapeutic regimen, HHT patient with cancer
  side effects, adverse event grade (CTCAE version 5.0): Grade 1

B1: BMP9: bone morphogenetic protein 9 (aka growth and differentiation factor 2, GDF2); causal ligand for HHT, used to treat BOECs for 1 hour (protein, UniProt Q9UK05 320-429, looked up)
Growth/differentiation factor …: SAGAGSHCQKTSLRVNFEDIGWDSWIIAPKEYEAYECKGGCFFPLADDVTPTKHAIVQTLVHLKFPTKVGKACCVPTKLSPISVLYKDDMGVPTLKYHYEGMSVAECGCR
[4]
  MAP3K1 transcripts (RNASeq): significantly increased
[5]
  MEK1/2 transcript levels (RNASeq): no effect
